Results from patent US7592344B2, “NK1 and NK2-antagonists and compositions and methods of using the same” (Solvay Pharmaceuticals GmbH, priority 2005, dated 2009).

What was measured:
NK2 receptors [1] = molecular target: T1, NK2 receptors (Cavia porcellus, UniProt Q64077); assay: NK2-receptor-antagonistic effectiveness in vivo in anesthetized guinea pigs (NKA-induced late hypotension, bronchoconstriction, colonic motility); settings: guinea pig
T1 construct: from tissue; host or cells: whole animal: anesthetized Pirbright-White guinea pigs
T1 sequence (Q64077 1-402): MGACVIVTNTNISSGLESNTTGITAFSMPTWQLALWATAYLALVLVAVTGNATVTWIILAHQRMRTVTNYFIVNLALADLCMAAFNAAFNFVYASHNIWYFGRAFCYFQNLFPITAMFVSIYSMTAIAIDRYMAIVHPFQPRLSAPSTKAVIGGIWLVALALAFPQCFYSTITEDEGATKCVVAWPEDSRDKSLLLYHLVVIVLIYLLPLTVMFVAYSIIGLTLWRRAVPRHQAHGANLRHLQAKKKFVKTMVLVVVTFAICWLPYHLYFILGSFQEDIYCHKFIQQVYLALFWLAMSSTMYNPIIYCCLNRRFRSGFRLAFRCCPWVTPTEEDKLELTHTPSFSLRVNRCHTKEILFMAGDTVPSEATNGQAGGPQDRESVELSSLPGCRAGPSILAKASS
Description: (§1) 6. Determination of the NK1- and NK2-receptor-antagonistic Effectiveness of the Test Substances In Vivo
(§2) The NK1- and NK2-antagonistic activities of the test substances were investigated in anesthetized guinea pigs in each case after intravenous (=i.v.) and oral (=p.o.) administration in vivo. With the present test model it is possible to detect both NK2-antagonistic effects in three different organ systems (respiratory tracts, colon and circulation) and NK1-antagonistic effects (rapid drop in blood pressure) in an animal simultaneously.
Pirbright-White guinea pigs having a body weight of 500-700 g were anesthetized with ketamine/xylazine (67/13 mg/kg subcutaneously, initial dose, further doses administered as required). The animals were provided with an intravenous catheter in order to administer the substance and an intra-arterial catheter to measure the blood pressure. The animals were artificially ventilated via a tracheal cannula and the respiratory pressure was recorded by a pressure transducer. A balloon was introduced into the distal colon of the animals for manometric recording of colon motility by a pressure transducer. Blood pressure, heart rate, respiratory pressure and colonic pressure were measured continuously for each animal and plotted on a recorder and by a digital data-processing system. […] The second phase of delayed hypotension (=phase of maximum hypotension after 2-5 min.) on the other hand is mediated via NK2 receptors, since they can be blocked by specific NK2 receptor antagonists.
These ED50 values obtained from cumulative dose effect curves are plotted in Table 6.
(§3) The antagonistic effects of the test substances were then determined as “area under the curve” (“AUC”) over the investigation period after administration of the test substances (1-180 min after administration) and the ED50 values after oral administration obtained therefrom were plotted in Table 7.

NK1 receptors [2] = molecular target: T2, NK1 receptors (Cavia porcellus, UniProt P30547); assay: NK1-receptor-antagonistic effectiveness in vivo in anesthetized guinea pigs (NKA-induced early hypotension); settings: guinea pig
T2 construct: from tissue; host or cells: whole animal: anesthetized Pirbright-White guinea pigs
Description: as §1, §2
Pirbright-White guinea pigs having a body weight of 500-700 g were anesthetized with ketamine/xylazine (67/13 mg/kg subcutaneously, initial dose, further doses administered as required). […] The animals were artificially ventilated via a tracheal cannula and the respiratory pressure was recorded by a pressure transducer. […] Blood pressure, heart rate, respiratory pressure and colonic pressure were measured continuously for each animal and plotted on a recorder and by a digital data-processing system. […]
as §3

NK1 receptors [3] = molecular target: T2, NK1 receptors; assay: Functional NK1 antagonism on isolated guinea pig aorta rings (inhibition of Substance P-induced relaxation); settings: phenylephrine tone, 0.01 μmol Substance P
Procedure: 3. Determining of the Functional NK1 Antagonism of the Test Substances on Isolated Guinea Pig Tissue In Vitro
The action antagonistic to NK1 receptors of the test substances was measured in vitro on isolated ring preparations, kept in an oxygenated nutrient solution, of the aortas of Pirbright-White guinea pigs.
In order to measure the contraction of the vessel muscles, the preparations were fixed to a hook, joined by a thread to a force measuring apparatus and the contractions were recorded in each case on a plotter. The aorta preparations were tonicized with phenylephrine. […] The relaxations before and after the administration of the test substance were qualified in percent. The effective concentration of the half maximum inhibition of the relaxation of the tone (=EC50) was calculated. The negative common logarithm of the EC50 value (=pEC50) was given as characteristic variable. The pEC50 value is a measurement of the functional effectiveness of the test substances on NK1 receptors.

human NK1 receptor [4] = molecular target: T3, human NK1 receptor (Homo sapiens, UniProt P25103); assay: Binding power to NK1 receptors in vitro ([3H]-Substance P displacement, CHO cell membranes); design: expressed in transfected cells; host or cells: CHO cells (membrane preparation); settings: human NK1 receptor in CHO membranes, ligand [3H]-Substance P; for Ki: read-out: pKi (NK1) (converted)
Procedure: 1. Determination of the Binding Power of the Test Substances to NK1 Receptors In Vitro.
Affinity of the test substances to human NK1 receptors was measured in vitro.
The receptor binding studies were performed with [^3H]-Substance P as ligand. For the binding test, different samples of a membrane preparation of CHO cells (=egg cells of the Chinese hamster, […]), which express the human NK1 receptor (“Accession Number” of the associated nucleic acid sequence=M74290; “Accession Number” of the associated protein sequence=P25103; cf. Takeda, Y.; Chou, K. B., Takeda, J.; Sachais, B. S. and Krause, J. E; Biochemical and Biophysical Research Communications, 179(3) (1991) 1232-1240), were incubated with a solution of the marked ligand, with the incubation mixtures containing no test substance or additions of different concentration of test substance. Then, separation of bound and free ligands was performed in each of the samples with the aid of glass-fiber filtration. The fraction remaining in the filter was washed several times with buffer solution and then the radioactivity of the fraction remaining in the filter was measured using a beta scintillation counter.
For the compounds of Examples 1 to 14, that concentration which effects half maximum displacement of the bound ligand was determined as IC50 of the respective test substance. From this, the corresponding inhibition constant (Ki value) of the test substance was calculated, and was stated as the negative common logarithm of the Ki value (=pKi value) The pKi value is a measurement of the affinity of the test substances to human NK1 receptors.

NK2 receptors [5] = molecular target: T1, NK2 receptors; assay: Functional NK2 antagonism on isolated guinea pig gall-bladder (inhibition of NKA-induced contraction); settings: NKA 0.1 μmol/l, two hours' incubation, IC50 in mol/l
Procedure: 4. Determination of the Functional […] of the Test Substances on Isolated Guinea Pig Tissue In Vitro.
The NK2 receptor-antagonizing action of the test substances was determined on isolated gall-bladder preparations from Pirbright-White guinea pigs, held in an oxygen-saturated nutrient solution. To this end, the preparations were fastened on one hand in the nutrient solution to organ holders and on the other hand on a force meter by a thread.
The concentration of the test substances was increased iteratively in the subsequent experiments as a function of the result in logarithmic whole or half steps, until at least one concentration above or below 50% inhibition of contraction was determined (up to at most 10^−5 mol/l). For each concentration, the average value of inhibition of contraction was calculated from 2 to 4 preparations. In each case, the concentration of half-maximum inhibition (IC50) per test substance was calculated as characteristic variable. In each case the logarithmized value of the IC50 per test substance is given as plC50 in [mol/l].

human NK2 receptor [6] = molecular target: T4, human NK2 receptor (Homo sapiens, UniProt P21452); assay: Binding power to NK2 receptors in vitro ([3H]-SR 48968 displacement, CHO cell membranes); design: expressed in transfected cells; host or cells: CHO cells (membrane preparation); settings: human NK2 receptor in CHO membranes, ligand [3H]-SR 48968, 90 min incubation; for Ki: read-out: pKi (NK2) (converted)
T4 sequence (P21452 1-398): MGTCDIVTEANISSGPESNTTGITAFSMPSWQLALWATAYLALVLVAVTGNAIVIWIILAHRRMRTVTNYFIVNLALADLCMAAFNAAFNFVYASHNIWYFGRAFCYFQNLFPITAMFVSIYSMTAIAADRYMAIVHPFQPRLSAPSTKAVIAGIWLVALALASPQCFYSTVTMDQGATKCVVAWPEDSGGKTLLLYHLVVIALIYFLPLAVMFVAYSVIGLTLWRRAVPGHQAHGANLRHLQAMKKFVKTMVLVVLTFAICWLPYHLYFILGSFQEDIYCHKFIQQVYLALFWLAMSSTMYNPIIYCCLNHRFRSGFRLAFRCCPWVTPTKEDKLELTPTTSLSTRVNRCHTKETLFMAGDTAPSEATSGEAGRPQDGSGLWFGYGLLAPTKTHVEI
Procedure: The affinity of the test substances to human NK2 receptors was measured in vitro. The ability of the test substances to displace the selective NK2 receptor antagonist SR 48968 (=saredutant) used as reference ligand from its corresponding bond was determined.
The receptor binding studies were carried out with radioactively marked [^3H]-SR 48968 (from Amersham) as ligand. For the binding test, different samples of a membrane preparation of CHO cells (=egg cells of the Chinese hamster, […]), which express the human NK2 receptor (for preparation, see N. P. Gerard et al., Journal of Biological Chemistry 265/33 (1990) 20455-20462), were incubated for 90 minutes (=min.) with a solution of the marked ligand, with the incubation mixtures containing no test substance or additions of different concentrations of test substance. Then in each case the membrane-bound ligands in the samples were separated from free ligands by filtration. The fraction remaining in the filter was washed several times with buffer solution, before its radioactivity was measured using a liquid scintillation counter. That concentration which effects half-maximum displacement of the bound reference ligand was determined as IC50 of the respective test substance. The inhibition constant (Ki value) of the test substance was calculated from the respective IC50 value, and was stated as the negative logarithmized value thereof (pKi).
If several measurements were performed, the average thereof was listed each time. The pKi value is a measurement of the affinity of the test substances to human NK2 receptors.

human NK1 receptor [7] = molecular target: T3, human NK1 receptor; assay: Functional cellular test, Ca2+ measurement using FLIPR, NK1 (substance P stimulated CHO cells)
Procedure: (§4) Functional Cellular Tests of the NK1- and NK2-antagonistic Effects
(§5) Functional cellular tests of the antagonistic effect of the compounds of the present invention on the human tachykinin receptors were performed in CHO cells expressing the recombinant human NK1 or NK2 receptor. In these tests the inhibition of ligand induced increase in mobilization of intracellular calcium and the inhibition of ligand induced phosphorylation of MAPK were determined, which can be used as a measure of functional activity of tachykinin-antagonists. Additionally, the antagonistic properties of reference compounds on the different tachykinin receptors were characterized for comparison.
(§6) The effects of test compounds were assessed using Chinese hamster ovary (CHO) fibroblast cells, stably expressing cloned human NK1 or NK2 receptors. The NK receptor in coupled to Gq. The activation of the Gq protein by ligand binding to the receptor leads to a mobilization of intracellular calcium and phosphorylation of MAPK. Both systems were used to determine functional effects of the test compounds.
(§7) Ca^2+Measurements Using FLIPR for NK1 and NK2 Activity
(§8) For tests, cell were seeded 24 hours prior to the experiment into black 96-well microplates. The cell density was 2.2×10^4 cells/well. All steps were done under sterile conditions. In order to observe changes in intracellular calcium levels, cells were loaded with a calcium-sensitive dye. This dye (FLUO-4, from Molecular Probes) excites at 488 nm, and emits in the 560 nm range, only if a complex with calcium is formed. For the dye loading the growth-medium was aspirated out of the well without disturbing the confluent cell layer and 100 μl loading medium (HBSS, 4 μM FLUO-4, 0.005% (w/v) pluronic acid, 2.5 mM probenecid, 20 mM HEPES, pH 7.4) was dispensed into each well using an automatic pipettor system (Multidrop, Labsystems). Pluronic acid was added to increase dye solubility and dye uptake into the cells, whereas probenecid, an anion exchange inhibitor, was added to the loading medium to increase dye retention in the cells. The cells were incubated in a 5% CO2 incubator at 37° C. for 40 minutes. After dye loading, the cells were washed three times with wash-buffer (HBSS, 2.5 mM probenecid, 20 mM HEPES, pH 7.4) to reduce basal fluorescence. In the last washing step the buffer was aspirated and replaced with 100 μl washing buffer. […] The FLIPR setup parameters were set to 0.4 sec exposure length, filter 1, 50 μl fluid addition, pipettor height at 125 μl, dispense speed 40 μl/sec without mixing. Maximal fluorescence changes were obtained using the statistic function of the FLIPR software, and data plotted using GraphPad Prism 4. All points were expressed as a percentage inhibition of the control agonist. IC50 values were determined using sigmoidal dose-response curve fitting.

human NK2 receptor [8] = molecular target: T4, human NK2 receptor; assay: Functional cellular test, Ca2+ measurement using FLIPR, NK2 (NKA stimulated CHO cells)
Procedure: as §4, §5, §6, §7, §8

[9] = i.v., NKA stimulus 1 min after dosing

T2 sequence (P30547 whole entry): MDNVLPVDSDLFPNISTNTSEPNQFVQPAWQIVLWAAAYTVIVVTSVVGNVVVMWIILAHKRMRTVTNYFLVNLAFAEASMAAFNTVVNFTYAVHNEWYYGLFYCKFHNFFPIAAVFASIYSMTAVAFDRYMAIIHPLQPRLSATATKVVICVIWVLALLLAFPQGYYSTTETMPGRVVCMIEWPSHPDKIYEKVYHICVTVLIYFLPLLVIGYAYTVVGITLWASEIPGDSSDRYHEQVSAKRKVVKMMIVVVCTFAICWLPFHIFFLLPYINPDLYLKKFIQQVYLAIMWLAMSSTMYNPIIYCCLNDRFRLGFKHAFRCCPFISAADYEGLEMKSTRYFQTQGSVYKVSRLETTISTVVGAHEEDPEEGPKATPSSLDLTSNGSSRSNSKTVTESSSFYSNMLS
T3 sequence (P25103 whole entry): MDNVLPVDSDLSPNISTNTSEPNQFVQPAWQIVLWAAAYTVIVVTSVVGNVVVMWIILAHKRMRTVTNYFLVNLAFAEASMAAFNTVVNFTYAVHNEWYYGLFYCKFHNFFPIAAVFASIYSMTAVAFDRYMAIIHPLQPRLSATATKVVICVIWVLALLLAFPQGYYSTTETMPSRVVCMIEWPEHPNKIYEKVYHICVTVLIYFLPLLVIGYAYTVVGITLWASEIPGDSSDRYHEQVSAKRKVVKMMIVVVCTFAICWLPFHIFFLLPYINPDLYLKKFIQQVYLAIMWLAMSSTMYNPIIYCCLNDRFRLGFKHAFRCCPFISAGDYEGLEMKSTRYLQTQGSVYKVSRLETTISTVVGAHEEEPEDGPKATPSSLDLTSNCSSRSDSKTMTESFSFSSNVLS

| Compound | Kb (human NK2 receptor [8]) | Ki (human NK1 receptor [4]) | Kb (human NK1 receptor [7]) | Ki (human NK2 receptor [6]) | other results |
| --- | --- | --- | --- | --- | --- |
| CN(C[C@@H](CCN1CCN([C@@H](c2ccco2)[C@H](O)CO)CC1)c1ccc(Cl)c(Cl)c1)C(=O)c1cc(C#N)cc2ccccc12 [Compound 1, 3-cyano-N-[(2S)-2-(3,4-dichlorophenyl)-4-{4-[(1R,2S)-1-(2-furyl)-2,3-dihydroxy-propyl]-piperazin-1-yl}butyl]-N-methyl-1-naphthamide] |  |  |  |  | melting point: 140 to 142 °C; oral activity as NK2 receptor antagonist (in words) (NK2 receptors [1]; oral): active orally; oral activity as NK1 receptor antagonist (in words) (NK1 receptors [2]; oral): active orally |
| CN(CC(CCN1CCN(C(c2ccsc2)C(O)C(O)C(O)CO)CC1)c1ccc(Cl)c(Cl)c1)C(=O)c1cc(C#N)cc2ccccc12 (centres unmarked) [Compound 5] |  |  |  |  | pEC50 (NK1 receptors [3]): 10.0; pKi (NK1) (human NK1 receptor [4]): 8.9; pIC50 (NK2 receptors [5]): 7.5; pKi (NK2) (human NK2 receptor [6]): 7.3 |
| CN(CC(CCN1CCN(C(c2ccco2)C(O)C(O)CO)CC1)c1ccc(Cl)c(Cl)c1)C(=O)c1cc(C#N)cc2ccccc12 (centres unmarked) [Compound 7] |  |  |  |  | pKi (NK1) (human NK1 receptor [4]): 8.3; pA2 (NK1) (human NK1 receptor [7]; CHO cells with human NK1 receptor, FLIPR Ca2+, substance P 10^-8 M): 8.8; ED50 iv after 1 min (cumulative), NK2 (bronchoconstriction) (NK2 receptors [1]; [9]): 0.207 µmol/kg; ED50 iv after 1 min (cumulative), NK2 (colonic motility) (NK2 receptors [1]; [9]): 0.309 µmol/kg; ED50 iv after 1 min (cumulative), NK2 (late hypotension) (NK2 receptors [1]; [9]): 0.338 µmol/kg; ED50 iv after 1 min (cumulative), NK1 (early hypotension) (NK1 receptors [2]; [9]): 0.052 µmol/kg; pA2 (NK2) (human NK2 receptor [8]; CHO cells with human NK2 receptor, FLIPR Ca2+, NKA 10^-7 M): 8.1; pKi (NK2) (human NK2 receptor [6]): 7.4 |
| CN(C[C@@H](CCN1CCN([C@@H](c2cccs2)[C@H](O)CO)CC1)c1ccc(Cl)c(Cl)c1)C(=O)c1cc(C#N)cc2ccccc12 [Compound 9, 3-cyano-N-[(2S)-2-(3,4-dichlorophenyl)-4-{4-[(1R,2S)-2,3-dihydroxy-1-(2-thienyl)propyl]piperazin-1-yl}butyl]-N-methyl-1-naphthamide] | 10 nM |  |  |  |  |
| COc1ccc([C@@H]([C@H](O)CO)N2CCN(CC[C@H](CN(C)C(=O)c3cc(C#N)cc4ccccc34)c3ccc(Cl)c(Cl)c3)CC2)cc1 [Compound 16, 3-cyano-N-[(2)-2-(3,4-dichlorophenyl)-4-{4-[(1S,2S)-2,3-dihydroxy-1-(4-methoxyphenyl)propyl]piperazin-1-yl}butyl]-N-methyl-1-naphthamide] | 0.794 nM | 1 nM | 0.501 nM | 794 nM |  |
| CN(CC(CCN1CCN(C(Cc2ccccc2)C(O)CO)CC1)c1ccc(Cl)c(Cl)c1)C(=O)c1cc(C#N)cc2ccccc12 (centres unmarked) [Compound 24] | 15.8 nM | 10 nM | 7.94 nM | 31.6 nM |  |
| CC(=O)OCC(O)C(Cc1ccccc1)N1CCN(CCC(CN(C)C(=O)c2cc(C#N)cc3ccccc23)c2ccc(Cl)c(Cl)c2)CC1 (centres unmarked) [Compound 26] | 39.8 nM | 7.94 nM | 10 nM | 100 nM |  |
| CC(=O)OC[C@@H](OC(C)=O)[C@H](c1ccco1)N1CCN(CC[C@H](CN(C)C(=O)c2cc(C#N)cc3ccccc23)c2ccc(Cl)c(Cl)c2)CC1 [Compound 27, (2S,3R)-2-(acetyloxy)-3-{4-[(3S)-4-[3-cyano-1-naphthoyl)(methyl)amino]-3-(3,4-dichlorophenyl)butyl]piperazin-1-yl}-3-(2-furyl)propyl acetate] | 7.94 nM | 6.31 nM | 0.631 nM | 25.1 nM |  |
